Results taken from patent US10471046B2, “Method for treating, preventing, or reducing the risk of skin infection” (Melinta Subsidiary Corp., priority 2014, dated 2019).
Converted amounts (≈) assume the structure as drawn. Structures can show the parent of a compound that is named as a salt. Where two headings read alike, the source gives them in different places.

What was measured:
[1] = test system: B. fragilis; assay: Broth microdilution MIC; format: cell-based; settings: Bacteroides fragilis, ATCC25285; B. fragilis ATCC 25285
[2] = test system: B. thetaiotaomicron; assay: microbe, parasite or virus in culture; format: cell-based; settings: for MIC: Bacteroides thetaiotaomicron, ATCC29741, read-out: MIC, broth microdilution
[3] = test system: F. magna; assay: Broth microdilution MIC; format: cell-based; settings: Finegoldia magna, ATCC15794; F. magna ATCC 15794
[4] = test system: P. granulosum; assay: Broth microdilution MIC; format: cell-based; settings: P. granulosum ATCC 25746
[5] = test system: G. vaginalis; assay: Broth microdilution MIC; format: cell-based; settings: Gardnerella vaginalis
[6] = test system: S. aureus; assay: Broth microdilution MIC; format: cell-based; settings: for MIC: Staphylococcus aureus, ATCC29213, S. aureus ATCC 29213
[7] = Dynamic vapor sorption/desorption (DVS); format: physicochemical; settings: radezolid salts
Protocol: Dynamic vapor sorption/desorption (DVS) data were collected on a VTI SGA-100 Vapor Sorption Analyzer. Sorption and desorption data were collected over a range of 5% to 95% relative humidity (RH) at 10% RH intervals under a nitrogen purge. Samples were not dried prior to analysis. Equilibrium criteria used for analysis were less than 0.0100% weight change in 5 minutes, with a maximum equilibration time of 3 hours if the weight criterion was not met. Data were not corrected for the initial moisture content of the samples. Sodium chloride and polyvinylpyrrolidine (PVP) were used as calibration standards.

[8] = format: physicochemical; settings: radezolid salt forms in HPLC grade water, ambient temperature
[9] = Approximate solubility in solvents by aliquot addition; format: physicochemical; settings: organic solvent or mixture, thermodynamic from solid
Protocol: Solubilities of the radezolid free base and radezolid HCl salt in various solvents were estimated and are shown in Tables 10 and 11, respectively, below. A weighed sample was treated with aliquots of test solvent at ambient temperature. Complete dissolution of the test material was determined by visual inspection. Solubility was estimated based on the total solvent used to provide complete dissolution. The actual solubility may be greater than the approximate solubility calculated because of the use of solvent aliquots that were too large or due to a slow rate of dissolution. […] If complete dissolution was achieved as a result of only one aliquot addition, the solubility is expressed as “greater than.” The approximate solubilities were rounded to the nearest whole number.

[10] = Solubility of salts in water by HPLC; format: physicochemical; settings: listed as HCl Salt
Protocol: In another set of experiments, solubility of various radezolid salts was determined by HPLC. Approximately 1 mL of saturated solution (with excess of solid in solution) of each salt was prepared in water. The mixture was further mixed overnight on a slurry wheel then centrifuged on a desktop centrifuge at maximum speed for ˜5 min. The supernatant was collected, and pH was measured. Solubility was determined at the native pH. Then the pH was adjusted to ˜3.5 with sodium hydroxide solution or an acid solution in which salt was generated. The supernatant was filtered through a 0.2 μm nylon syringe filter and diluted into 0.1% formic acid solution immediately after filtration for HPLC. All HPLC analyses were performed using an Agilent 1100 series liquid chromatograph equipped with a diode array detector, degasser, quaternary pump, and an autosampler. […] The column temperature was set to 30° C., and the detector wavelength was 270 nm with a bandwidth of 8 nm and a reference wavelength of 360 nm. The mobile phase A was 0.1% formic acid in water (HPLC grade), mobile phase B was 0.1% formic acid in methanol (HPLC grade). […] The injection volume was 5 μl.

[11] = test system: caco-2
[12] = in vivo
[13] = test system: Enterococcus faecalis; assay: MIC against ribosome-based resistance phenotypes; format: cell-based; settings: read-out: Minimum Inhibitory Concentration (MIC)
Description: (§1) Furthermore, the antibiotic compounds can be assayed for anti-proliferative or anti-infective properties on a cellular level. For example, where the target organism is a microorganism, the activity of compounds of interest can be assayed by growing the microorganisms of interest in media either containing or lacking the compound. Growth inhibition can be indicative that the molecule could be acting as a protein synthesis inhibitor. […] For this purpose, a panel of bacterial strains can be assembled to include a variety of target pathogenic species, some containing resistance mechanisms that have been characterized. Use of such a panel of organisms permits the determination of structure-activity relationships not only in regards to potency and spectrum, but also with a view to obviating resistance mechanisms.

[14] = test system: Staphylococcus aureus; assay: MIC against ribosome-based resistance phenotypes; format: cell-based; settings: ATCC29213, Staphylococcus aureus ATCC29213, phenotype QC, read-out: Minimum Inhibitory Concentration (MIC)
Description: as §1

[15] = test system: B. fragilis; assay: Agar dilution MIC (CLSI reference method); format: cell-based; settings: Bacteroides fragilis, ATCC25285; B. fragilis ATCC 25285
[16] = test system: F. magna; assay: Agar dilution MIC (CLSI reference method); format: cell-based; settings: Finegoldia magna, ATCC15794; F. magna ATCC 15794
[17] = test system: P. acnes; assay: Agar dilution MIC (CLSI reference method); format: cell-based; settings: Cutibacterium acnes
[18] = test system: P. granulosum; assay: Agar dilution MIC (CLSI reference method); format: cell-based; settings: P. granulosum ATCC 25746
[19] = test system: G. vaginalis; assay: Agar dilution MIC (CLSI reference method); format: cell-based; settings: Gardnerella vaginalis
[20] = ATCC14018, G. vaginalis ATCC 14018
[21] = ATCC49145, G. vaginalis ATCC 49145

For `CN(C)[C@@H]1C(O)=C(C(N)=O)C(=O)[C@@]2(O)C(O)=C3C(=O)c4c(O)cccc4[C@@](C)(O)[C@H]3C[C@@H]12` [TET, tetracycline], the MIC [1] was 0.25 µg/mL (≈ 0.563 µM), the MIC [2] was 8 µg/mL (≈ 18 µM) and the MIC [3] was 0.25 µg/mL (≈ 0.563 µM). The MIC [4] was 0.25 µg/mL (≈ 0.563 µM), the MIC [5, 20] was 0.5 µg/mL (≈ 1.13 µM) and the MIC [5, 21] was > 32 µg/mL. It also gave an MIC [6] of 1 µg/mL (≈ 2.25 µM).

For `CC(=O)NC[C@H]1CN(c2ccc(-c3ccc(CNCc4cnn[nH]4)cc3)c(F)c2)C(=O)O1` [Hydrochloride, (5S)—N-[3-(2-Fluoro-4′-{[(1H-[1,2,3]triazol-4-ylmethyl)-amino]-methyl}-biphenyl-4-yl)-2-oxo-oxazolidin-5-ylmethyl]-acetamide chloride], the “DVS desorption: weight loss from 95 to 5% RH” value [7] was “Desorption: 0.069% weight loss”, the “DVS sorption: weight gain from 5 to 95% RH” value [7] was 0.064% weight gain from 5 to and the “DVS sorption: weight gain upon equilibration at 5% RH” value [7] was “Sorption: 0.03% weight gain”. The solubility [8] was <30 µg/mL, the solubility ([9]; 1-butanol, Table 11: 1-Butanol, material never went into solution) was < 2000 µg/mL and the solubility ([9]; 2,2,2-trifluoroethanol (TFE), Table 11: 2,2,2-trifluoroethanol (TFE)) was ≥ 6000 µg/mL. The solubility ([9]; 2-butanone, Table 11: 2-Butanone, material never went into solution) was < 2000 µg/mL, the solubility ([9]; 2-propanol, Table 11: 2-Propanol, material never went into solution) was < 2000 µg/mL and the solubility ([9]; HFIPA/THF, Table 11: HFIPA/THF) was ≥ 74000 µg/mL. The solubility ([9]; HFIPA/dioxane (9:1), Table 11: HFIPA/Dioxane (9:1)) was ≥ 52000 µg/mL, the solubility ([9]; HFIPA/ethanol (5:1), Table 11: HFIPA/Ethanol (5:1)) was ≥ 80000 µg/mL and the solubility ([9]; dioxane, Table 11: Dioxane, material never went into solution) was < 2000 µg/mL. For the same compound, the solubility ([9]; ethanol, Table 11: Ethanol, material never went into solution) was < 2000 µg/mL, the solubility ([9]; hexafluoroisopropanol (HFIPA), Table 11: Hexafluoroisopropanol (HFIPA)) was ≥ 225000 µg/mL and the solubility ([9]; methanol, Table 11: Methanol, material never went into solution) was < 2000 µg/mL. The solubility ([9]; propionitrile, Table 11: Propionitrile, material never went into solution) was < 2000 µg/mL, the solubility ([9]; tert-butanol, Table 11: Tert-butanol, material never went into solution) was < 5000 µg/mL and the solubility ([9]; tetrahydrofuran (THF), Table 11: Tetrahydrofuran (THF), material never went into solution) was < 2000 µg/mL. For the same compound, the “Solubility at Adjusted pH” value ([10]; radezolid salts in water by HPLC at 23° C., pH adjusted to ~3.5) was 2.0 mg/mL and the “Native pH” value ([10]; supernatant of saturated salt solution in water) was 4.6.

In the case of `CC[C@H]1OC(=O)[C@H](C)[C@@H](O[C@H]2C[C@@](C)(OC)[C@@H](O)[C@H](C)O2)[C@H](C)[C@@H](O[C@@H]2O[C@H](C)C[C@H](N(C)C)[C@H]2O)[C@](C)(O)C[C@@H](C)C(=O)[C@H](C)[C@@H](O)[C@]1(C)O` [ERY, erythromycin], the MIC [1] is reported as 16 µg/mL (≈ 21.8 µM), the MIC [2] is reported as 16 µg/mL (≈ 21.8 µM) and the MIC [3] is reported as 4 µg/mL (≈ 5.45 µM). The MIC [4] was 16 µg/mL (≈ 21.8 µM), the MIC [5, 20] was ≤ 0.06 µg/mL and the MIC [5, 21] was ≤ 0.06 µg/mL. It also gave an MIC [6] of 1 µg/mL (≈ 1.36 µM).

In the case of `Cc1ncc([N+](=O)[O-])n1CCO` [MET, metronidazole], the MIC [1] is reported as 0.5 µg/mL (≈ 2.92 µM), the MIC [2] is reported as 4 µg/mL (≈ 23.4 µM) and the MIC [3] is reported as 0.125 µg/mL (≈ 0.73 µM). For the same compound, the MIC [4] was 1 µg/mL (≈ 5.84 µM), the MIC [5, 20] was 8 µg/mL (≈ 46.7 µM) and the MIC [5, 21] was 4 µg/mL (≈ 23.4 µM). The MIC [6] was > 32 µg/mL.

For `C[C@H]1c2cccc(O)c2C(=O)C2=C(O)[C@]3(O)C(=O)C(C(N)=O)=C(O)[C@@H](N(C)C)[C@@H]3[C@@H](O)[C@@H]21` [DOX, doxycycline], the MIC [1] was ≤ 0.06 µg/mL, the “MIC difference relative to radezolid MIC” value ([2]; B. thetaiotaomicron, doxycycline: more potent than radezolid) was 4 fold and the MIC [2] was 2 µg/mL (≈ 4.5 µM). It also gave an MIC [3] of 0.125 µg/mL (≈ 0.281 µM), an MIC [4] of 0.25 µg/mL (≈ 0.563 µM) and an MIC [5, 20] of 0.5 µg/mL (≈ 1.13 µM). For the same compound, the MIC [5, 21] was 32 µg/mL (≈ 72 µM), the “MIC difference relative to radezolid MIC” value ([6]; S. aureus, doxycycline and clindamycin: MICs lower than radezolid) was 4 fold and the MIC [6] was 0.5 µg/mL (≈ 1.13 µM).

With `CC(=O)NC[C@H]1CN(c2ccc(-c3ccc(CNCc4cnn[nH]4)cc3)c(F)c2)C(=O)O1.Cl` [model compound] the “solubility of salt in water” value (pH 4) was 2600 µg/mL, the “solubility of salt in water” value (pH 5.4) was 200 µg/mL and the “solubility of salt in water” value (pH 6.5) was 60 µg/mL. For the same compound, the intrinsic solubility (pH 6.8) was 10 µg/mL, the caco-2 permeability [11] was 0.5 ×10⁻⁶ cm/s and the positive food effect [12] was 4 ×.

Compound `CC[C@H]1OC(=O)[C@H](C)[C@@H](O[C@H]2C[C@@](C)(OC)[C@@H](O)[C@H](C)O2)[C@H](C)[C@@H](O[C@@H]2O[C@H](C)C[C@H](N(C)C)[C@H]2O)[C@](C)(O)C[C@@H](C)CN(C)[C@H](C)[C@@H](O)[C@]1(C)O` [Azithromycin, azithromycin] has an MIC ([13]; ATCC29212, Enterococcus faecalis ATCC29212, phenotype QC) of 8 µg/mL (≈ 10.7 µM), an MIC ([13]; ATCC29212, Enterococcus faecalis ATCC29212-P5, Lin-R (G2576U)) of 8 µg/mL (≈ 10.7 µM) and an MIC [13] of 128 µg/mL (≈ 171 µM). The MIC [14] was 1 µg/mL (≈ 1.34 µM).

With `CCC[C@@H]1C[C@@H](C(=O)N[C@@H]([C@H]2O[C@H](SC)[C@H](O)[C@@H](O)[C@H]2O)[C@H](C)Cl)N(C)C1` [Clindamycin, clindamycin] the MIC [15] was 2 µg/mL (≈ 4.71 µM), the MIC [16] was 1 µg/mL (≈ 2.35 µM) and the MIC ([17]; ATCC11827, P. acnes ATCC 11827) was ≤ 0.06 µg/mL. The MIC ([17]; ATCC11828, P. acnes ATCC 11828) was 0.125 µg/mL (≈ 0.294 µM), the MIC ([17]; ATCC29399, P. acnes ATCC 29399) was ≤ 0.06 µg/mL and the MIC [18] was 1 µg/mL (≈ 2.35 µM). For the same compound, the MIC [19, 20] was 0.25 µg/mL (≈ 0.588 µM), the MIC [19, 21] was 0.125 µg/mL (≈ 0.294 µM) and the MIC [1] was 1 µg/mL (≈ 2.35 µM). It also gave an MIC [3] of 0.5 µg/mL (≈ 1.18 µM), an MIC [4] of 1 µg/mL (≈ 2.35 µM) and an MIC [5, 20] of 0.125 µg/mL (≈ 0.294 µM). For the same compound, the MIC [5, 21] was ≤ 0.06 µg/mL and the MIC [6] was 0.25 µg/mL (≈ 0.588 µM).
